# According to the NIST ThermoML archive (doi:10.1016/j.jct.2010.11.007):
# “And” between values parts separate entries of the source, which are not always exact repeats. Equal entries are not always repeated. Numbers after ± are expanded uncertainties.
# What was measured:
# [1] = 101.33 kPa, Liquid; for speed of sound: Sing-around technique in a fixed-path interferometer; for mass density: Vibrating tube method
# [2] = refractive index (Na D-line) (dimensionless); details: 101.33 kPa, Liquid, Standard Abbe refractometry
# [3] = xn = mol fraction of the nth substance listed; details: Liquid, x2 = 0; for speed of sound: Sing-around technique in a fixed-path interferometer; for mass density: Vibrating tube method
# [4] = refractive index (Na D-line) (dimensionless); xn = mol fraction of the nth substance listed; details: 101 kPa, Liquid, Standard Abbe refractometry, x2 = 0
smiles,measurement,setting,value
CCCO [propan-1-ol],speed of sound,[1]; 283.15 K,1257.9 ± 0.7 m/s
same,mass density,[1]; 283.15 K,811.52 ± 0.13 kg/m3
same,speed of sound,[1]; 298.15 K,1206.3 ± 0.7 m/s
same,mass density,[1]; 298.15 K,799.56 ± 0.13 kg/m3
same,speed of sound,[1]; 313.15 K,1156.8 ± 0.7 m/s
same,mass density,[1]; 313.15 K,787.33 ± 0.14 kg/m3
same,speed of sound,[1]; 328.15 K,1106.8 ± 0.7 m/s
same,mass density,[1]; 328.15 K,774.69 ± 0.14 kg/m3
same,refractive index,[2]; 283.15 K,1.38906 ± 0.00032
same,refractive index,[2]; 298.15 K,1.38288 ± 0.00032
same,refractive index,[2]; 313.15 K,1.3766 ± 0.00032
same,refractive index,[2]; 328.15 K,1.37015 ± 0.00032
"C=CC(C)(O)CCC=C(C)C (stereo unspecified) [3,7-dimethyl-1,6-octadien-3-ol]",speed of sound,[1]; 283.15 K,1370.3 ± 2 m/s
same,mass density,[1]; 283.15 K,869.39 ± 0.63 kg/m3
same,speed of sound,[1]; 298.15 K,1315.1 ± 2 m/s
same,mass density,[1]; 298.15 K,857 ± 0.62 kg/m3
same,speed of sound,[1]; 313.15 K,1260.8 ± 2 m/s
same,mass density,[1]; 313.15 K,844.29 ± 0.61 kg/m3
same,speed of sound,[1]; 328.15 K,1207.6 ± 2 m/s
same,mass density,[1]; 328.15 K,831.31 ± 0.6 kg/m3
same,refractive index,[2]; 283.15 K,1.46659 ± 0.0005 and 1.4666 ± 0.0005
same,refractive index,[2]; 298.15 K,1.45946 ± 0.0005
same,refractive index,[2]; 313.15 K,1.45215 ± 0.0005
same,refractive index,[2]; 328.15 K,1.44473 ± 0.0005
CCCO [propan-1-ol] + C=CC(C)(O)CCC=C(C)C,speed of sound,"[3]; 283.15 K, 101 kPa",1258 ± 0.7 m/s
same,mass density,"[3]; 283.15 K, 101 kPa",811.52 ± 0.13 kg/m3
same,mass density,"[3]; 283.15 K, 20000 kPa",825.3 ± 1 kg/m3
same,mass density,"[3]; 283.15 K, 25000 kPa",828.5 ± 1 kg/m3
same,mass density,"[3]; 283.15 K, 30000 kPa",831.5 ± 1 kg/m3
same,mass density,"[3]; 283.15 K, 35000 kPa",834.5 ± 1 kg/m3
same,mass density,"[3]; 283.15 K, 40000 kPa",837.4 ± 1.1 kg/m3
same,speed of sound,"[3]; 298.15 K, 101 kPa",1206.3 ± 0.7 m/s
same,mass density,"[3]; 298.15 K, 101 kPa",799.56 ± 0.13 kg/m3
same,mass density,"[3]; 298.15 K, 20000 kPa",814.3 ± 1 kg/m3
same,mass density,"[3]; 298.15 K, 25000 kPa",817.8 ± 1 kg/m3
same,mass density,"[3]; 298.15 K, 30000 kPa",821 ± 1 kg/m3
same,mass density,"[3]; 298.15 K, 35000 kPa",824.1 ± 1.1 kg/m3
same,mass density,"[3]; 298.15 K, 40000 kPa",827.3 ± 1.1 kg/m3
same,speed of sound,"[3]; 313.15 K, 101 kPa",1156.8 ± 0.7 m/s
same,mass density,"[3]; 313.15 K, 101 kPa",787.34 ± 0.14 kg/m3
same,mass density,"[3]; 313.15 K, 20000 kPa",803.3 ± 1 kg/m3
same,mass density,"[3]; 313.15 K, 25000 kPa",806.9 ± 1 kg/m3
same,mass density,"[3]; 313.15 K, 30000 kPa",810.4 ± 1 kg/m3
same,mass density,"[3]; 313.15 K, 35000 kPa",813.8 ± 1.1 kg/m3
same,mass density,"[3]; 313.15 K, 40000 kPa",817 ± 1.1 kg/m3
same,speed of sound,"[3]; 328.15 K, 101 kPa",1106.8 ± 0.7 m/s
same,mass density,"[3]; 328.15 K, 101 kPa",774.69 ± 0.14 kg/m3
same,mass density,"[3]; 328.15 K, 20000 kPa",792.1 ± 1 kg/m3
same,mass density,"[3]; 328.15 K, 25000 kPa",795.9 ± 1 kg/m3
same,mass density,"[3]; 328.15 K, 30000 kPa",799.6 ± 1.1 kg/m3
same,mass density,"[3]; 328.15 K, 35000 kPa",803.2 ± 1.1 kg/m3
same,mass density,"[3]; 328.15 K, 40000 kPa",806.6 ± 1.1 kg/m3
same,refractive index,[4]; 283.15 K,1.38906 ± 0.00032
same,refractive index,[4]; 298.15 K,1.38288 ± 0.00032
same,refractive index,[4]; 313.15 K,1.3766 ± 0.00032
same,refractive index,[4]; 328.15 K,1.37015 ± 0.00032
